How the values were obtained:
[1] = system: L1210 (mouse lymphocytic leukemia) cells; test: Cell growth inhibition assay, L1210; type: cell-based; details: 72 hours incubation, phosphatase assay
Procedure: (§1) Compounds were tested for their cell growth inhibition of L1210 (ATCC no. CCL-219, mouse lymphocytic leukemia) cells, HCT116 (ATCC no. CCL-247, human colorectal carcinoma) cells, and HCT116/VM46 (a vinblastine-resistant strain of HCT116) cells in culture. A population of cells (>1×10^6 cells/mL as determined with a hemocytometer) was diluted with an appropriate amount of Dulbecco's Modified Eagle Medium (DMEM, Gibco) containing 10% fetal bovine serum (FBS, Gibco) to a final concentration of 30000 cells/mL.
(§2) To each well of a 96-well plate (Corning Costar), 100 μL of the cell media solution was added with a multichannel pipet. The cultures were incubated at 37° C. in an atmosphere of 5% CO2 and 95% humidified air for 24 hours. The test compounds were added to the plate as follows: test substances were diluted in DMSO to a concentration of 1 mM and 10-fold serial dilutions were performed on a separate 96-well plate. Fresh culture medium (100 μL) was added to each well of cells to constitute 200 μL of medium per well followed by 2 μL of each test agent. Compounds were tested in duplicate (n=2-18 times) at six concentrations between 0-1000 nM or 0-10000 nM. Following addition, cultures were incubated for an additional 72 hours.
(§3) A phosphatase assay was used to establish the IC50 values as follows: the media in each cell was removed and 100 μL of phosphatase solution (100 mg phosphatase substrate in 30 mL of 0.1 M NaOAc, pH 5.5, 0.1% Triton X-100 buffer) was added to each well. The plates were incubated at 37° C. for either 5 minutes (L1210) or 15 minutes (HCT116 and HCT116/VM46). After the given incubation time, 50 μL of 0.1 N NaOH was added to each well and the absorption at 405 nm was determined using a 96 well plate reader. As the absorption is directly proportional to the number of living cells, the IC50 values were calculated and the reported values represent of the average of 4-36 determinations (SD±10%).

[2] = system: HCT116 (human colorectal carcinoma) cells; test: cells; type: cell-based; details: 72 hours incubation, phosphatase assay; read-out: IC50, HCT116
Procedure: as §1, §2, §3

[3] = system: HCT116/VM46 (a vinblastine-resistant strain of HCT116) cells; test: Cell growth inhibition assay, HCT116/VM46; type: cell-based, human; details: 72 hours incubation, phosphatase assay; Pgp-overexpressing resistant line
Procedure: as §1, §2, §3

## CCC1(NC(=O)N2CCC(OC)C2)CC2CN(CCc3c([nH]c4ccccc34)C(C(=O)OC)(c3cc4c(cc3OC)N(C)C3C(O)(C(=O)OC)C(OC(C)=O)C5(CC)C=CCN6CCC43C65)C2)C1 (mixture of isomers) [Compound 16]
[1]
  IC50: 3.3 nM
[2]
  IC50: 1 nM
[3]
  IC50: 25 nM

## CCC1(NC(=O)N2CCC(Br)C2)CC2CN(CCc3c([nH]c4ccccc34)C(C(=O)OC)(c3cc4c(cc3OC)N(C)C3C(O)(C(=O)OC)C(OC(C)=O)C5(CC)C=CCN6CCC43C65)C2)C1 (mixture of isomers) [Compound 19]
[1]
  IC50: 3.1 nM
[2]
  IC50: 0.9 nM
[3]
  IC50: 25 nM

## CC[C@]1(NC(=O)N2CCC(N(C)C)C2)C[C@H]2CN(CCc3c([nH]c4ccccc34)[C@@](C(=O)OC)(c3cc4c(cc3OC)N(C)[C@H]3[C@@](O)(C(=O)OC)[C@H](OC(C)=O)[C@]5(CC)C=CCN6CC[C@]43[C@@H]65)C2)C1 (single isomer, unassigned) [Compound 10]
[1]
  IC50: 20 nM
[2]
  IC50: 20 nM
[3]
  IC50: 500 nM

## CC[C@]1(NC(=O)N2CCC(N(C)C)C2)C[C@H]2CN(CCc3c([nH]c4ccccc34)[C@@](C(=O)OC)(c3cc4c(cc3OC)N(C)[C@H]3[C@@](O)(C(=O)OC)[C@H](OC(C)=O)[C@]5(CC)C=CCN6CC[C@]43[C@@H]65)C2)C1 (single isomer, unassigned) [Compound 11]
[1]
  IC50: 14 nM
[2]
  IC50: 6.2 nM
[3]
  IC50: 390 nM

## CC[C@]1(NC(=O)N2CCC(F)C2)C[C@H]2CN(CCc3c([nH]c4ccccc34)[C@@](C(=O)OC)(c3cc4c(cc3OC)N(C)[C@H]3[C@@](O)(C(=O)OC)[C@H](OC(C)=O)[C@]5(CC)C=CCN6CC[C@]43[C@@H]65)C2)C1 (single isomer, unassigned) [Compound 17]
[1]
  IC50: 0.62 nM
[2]
  IC50: 0.64 nM
[3]
  IC50: 7.2 nM

## CC[C@]1(NC(=O)N2CCC(F)C2)C[C@H]2CN(CCc3c([nH]c4ccccc34)[C@@](C(=O)OC)(c3cc4c(cc3OC)N(C)[C@H]3[C@@](O)(C(=O)OC)[C@H](OC(C)=O)[C@]5(CC)C=CCN6CC[C@]43[C@@H]65)C2)C1 (single isomer, unassigned) [Compound 18]
[1]
  IC50: 0.6 nM
[2]
  IC50: 0.61 nM
[3]
  IC50: 20 nM

## CC[C@]1(NC(=O)N2CCC(C#N)C2)C[C@H]2CN(CCc3c([nH]c4ccccc34)[C@@](C(=O)OC)(c3cc4c(cc3OC)N(C)[C@H]3[C@@](O)(C(=O)OC)[C@H](OC(C)=O)[C@]5(CC)C=CCN6CC[C@]43[C@@H]65)C2)C1 (single isomer, unassigned) [Compound 20]
[1]
  IC50: 3.7 nM
[2]
  IC50: 1.5 nM
[3]
  IC50: 60 nM

## CC[C@]1(NC(=O)N2CCC(C#N)C2)C[C@H]2CN(CCc3c([nH]c4ccccc34)[C@@](C(=O)OC)(c3cc4c(cc3OC)N(C)[C@H]3[C@@](O)(C(=O)OC)[C@H](OC(C)=O)[C@]5(CC)C=CCN6CC[C@]43[C@@H]65)C2)C1 (single isomer, unassigned) [Compound 21]
[1]
  IC50: 5.1 nM
[2]
  IC50: 1.8 nM
[3]
  IC50: 60 nM

## CC[C@]1(NC(=O)N2CC=CC2)C[C@H]2CN(CCc3c([nH]c4ccccc34)[C@@](C(=O)OC)(c3cc4c(cc3OC)N(C)[C@H]3[C@@](O)(C(=O)OC)[C@H](OC(C)=O)[C@]5(CC)C=CCN6CC[C@]43[C@@H]65)C2)C1 [Compound 22]
[1]
  IC50: 0.53 nM
[2]
  IC50: 0.5 nM
[3]
  IC50: 5.7 nM

## CC[C@]1(NC(=O)N2CCCCCC2)C[C@H]2CN(CCc3c([nH]c4ccccc34)[C@@](C(=O)OC)(c3cc4c(cc3OC)N(C)[C@H]3[C@@](O)(C(=O)OC)[C@H](OC(C)=O)[C@]5(CC)C=CCN6CC[C@]43[C@@H]65)C2)C1 [Compound 24]
[1]
  IC50: 4.3 nM
[2]
  IC50: 3.1 nM
[3]
  IC50: 35 nM

## CC[C@]1(NC(=O)N2CCCCCCC2)C[C@H]2CN(CCc3c([nH]c4ccccc34)[C@@](C(=O)OC)(c3cc4c(cc3OC)N(C)[C@H]3[C@@](O)(C(=O)OC)[C@H](OC(C)=O)[C@]5(CC)C=CCN6CC[C@]43[C@@H]65)C2)C1 [Compound 25]
[1]
  IC50: 60 nM
[2]
  IC50: 35 nM
[3]
  IC50: 330 nM

## CC[C@]1(NC(=O)N2C3CCC2CC3)C[C@H]2CN(CCc3c([nH]c4ccccc34)[C@@](C(=O)OC)(c3cc4c(cc3OC)N(C)[C@H]3[C@@](O)(C(=O)OC)[C@H](OC(C)=O)[C@]5(CC)C=CCN6CC[C@]43[C@@H]65)C2)C1 [Compound 26]
[1]
  IC50: 40 nM
[2]
  IC50: 20 nM
[3]
  IC50: 250 nM

## CC[C@]1(NC(=O)N2CCc3ccccc3CC2)C[C@H]2CN(CCc3c([nH]c4ccccc34)[C@@](C(=O)OC)(c3cc4c(cc3OC)N(C)[C@H]3[C@@](O)(C(=O)OC)[C@H](OC(C)=O)[C@]5(CC)C=CCN6CC[C@]43[C@@H]65)C2)C1 [Compound 27]
[1]
  IC50: 0.59 nM
[2]
  IC50: 0.69 nM
[3]
  IC50: 6.2 nM

## CC[C@]1(NC(=O)N2Cc3ccc(C)cc3C2)C[C@H]2CN(CCc3c([nH]c4ccccc34)[C@@](C(=O)OC)(c3cc4c(cc3OC)N(C)[C@H]3[C@@](O)(C(=O)OC)[C@H](OC(C)=O)[C@]5(CC)C=CCN6CC[C@]43[C@@H]65)C2)C1 [Compound 30]
[1]
  IC50: 0.41 nM
[2]
  IC50: 0.44 nM
[3]
  IC50: 5.9 nM

## CC[C@]1(NC(=O)N2Cc3ccc(F)cc3C2)C[C@H]2CN(CCc3c([nH]c4ccccc34)[C@@](C(=O)OC)(c3cc4c(cc3OC)N(C)[C@H]3[C@@](O)(C(=O)OC)[C@H](OC(C)=O)[C@]5(CC)C=CCN6CC[C@]43[C@@H]65)C2)C1 [Compound 31]
[1]
  IC50: 0.63 nM
[2]
  IC50: 0.52 nM
[3]
  IC50: 5.2 nM

## CC[C@]1(NC(=O)N2Cc3ccc(Cl)cc3C2)C[C@H]2CN(CCc3c([nH]c4ccccc34)[C@@](C(=O)OC)(c3cc4c(cc3OC)N(C)[C@H]3[C@@](O)(C(=O)OC)[C@H](OC(C)=O)[C@]5(CC)C=CCN6CC[C@]43[C@@H]65)C2)C1 [Compound 32]
[1]
  IC50: 0.5 nM
[2]
  IC50: 0.55 nM
[3]
  IC50: 5.7 nM

## CC[C@]1(NC(=O)N2Cc3ccc(Br)cc3C2)C[C@H]2CN(CCc3c([nH]c4ccccc34)[C@@](C(=O)OC)(c3cc4c(cc3OC)N(C)[C@H]3[C@@](O)(C(=O)OC)[C@H](OC(C)=O)[C@]5(CC)C=CCN6CC[C@]43[C@@H]65)C2)C1 [Compound 33]
[1]
  IC50: 0.62 nM
[2]
  IC50: 0.56 nM
[3]
  IC50: 6.4 nM

## CC[C@]1(NC(=O)N2Cc3ccc(C(F)(F)F)cc3C2)C[C@H]2CN(CCc3c([nH]c4ccccc34)[C@@](C(=O)OC)(c3cc4c(cc3OC)N(C)[C@H]3[C@@](O)(C(=O)OC)[C@H](OC(C)=O)[C@]5(CC)C=CCN6CC[C@]43[C@@H]65)C2)C1 [Compound 34]
[1]
  IC50: 0.59 nM
[2]
  IC50: 0.67 nM
[3]
  IC50: 6.2 nM

## CC[C@]1(NC(=O)N2Cc3ccc(N)cc3C2)C[C@H]2CN(CCc3c([nH]c4ccccc34)[C@@](C(=O)OC)(c3cc4c(cc3OC)N(C)[C@H]3[C@@](O)(C(=O)OC)[C@H](OC(C)=O)[C@]5(CC)C=CCN6CC[C@]43[C@@H]65)C2)C1 [Compound 36]
[1]
  IC50: 0.47 nM
[2]
  IC50: 0.42 nM
[3]
  IC50: 6.8 nM

## CC[C@]1(NC(=O)N2Cc3ccc(NC)cc3C2)C[C@H]2CN(CCc3c([nH]c4ccccc34)[C@@](C(=O)OC)(c3cc4c(cc3OC)N(C)[C@H]3[C@@](O)(C(=O)OC)[C@H](OC(C)=O)[C@]5(CC)C=CCN6CC[C@]43[C@@H]65)C2)C1 [Compound 37]
[1]
  IC50: 0.45 nM
[2]
  IC50: 0.43 nM
[3]
  IC50: 4.6 nM

## CC[C@]1(NC(=O)N2Cc3ccc(N(C)C)cc3C2)C[C@H]2CN(CCc3c([nH]c4ccccc34)[C@@](C(=O)OC)(c3cc4c(cc3OC)N(C)[C@H]3[C@@](O)(C(=O)OC)[C@H](OC(C)=O)[C@]5(CC)C=CCN6CC[C@]43[C@@H]65)C2)C1 [Compound 38]
[1]
  IC50: 0.5 nM
[2]
  IC50: 0.62 nM
[3]
  IC50: 3.9 nM

## CCCNc1ccc2c(c1)CN(C(=O)N[C@@]1(CC)C[C@H]3CN(CCc4c([nH]c5ccccc45)[C@@](C(=O)OC)(c4cc5c(cc4OC)N(C)[C@H]4[C@@](O)(C(=O)OC)[C@H](OC(C)=O)[C@]6(CC)C=CCN7CC[C@]54[C@@H]76)C3)C1)C2 [Compound 39]
[1]
  IC50: 0.4 nM
[2]
  IC50: 0.31 nM
[3]
  IC50: 4.6 nM

## CCC(=O)Nc1ccc2c(c1)CN(C(=O)N[C@@]1(CC)C[C@H]3CN(CCc4c([nH]c5ccccc45)[C@@](C(=O)OC)(c4cc5c(cc4OC)N(C)[C@H]4[C@@](O)(C(=O)OC)[C@H](OC(C)=O)[C@]6(CC)C=CCN7CC[C@]54[C@@H]76)C3)C1)C2 [Compound 41]
[1]
  IC50: 0.46 nM
[2]
  IC50: 0.54 nM
[3]
  IC50: 7.7 nM

## CC[C@]1(NC(=O)N2Cc3ccc(NC(=O)C(C)C)cc3C2)C[C@H]2CN(CCc3c([nH]c4ccccc34)[C@@](C(=O)OC)(c3cc4c(cc3OC)N(C)[C@H]3[C@@](O)(C(=O)OC)[C@H](OC(C)=O)[C@]5(CC)C=CCN6CC[C@]43[C@@H]65)C2)C1 [Compound 43]
[1]
  IC50: 0.39 nM
[2]
  IC50: 0.49 nM
[3]
  IC50: 6.4 nM

— patent publication US10975101B2, “Ultra-potent vinca alkaloids: added molecular complexity further disrupts the tublin dimer-dimer interface” (priority 2016, dated 2021)
